Test results taken from US4950662A, “2-oxa-isocephem compounds, compositions containing the same and processes for preparing the same” (Otsuka Pharmaceutical Co., Ltd., priority 1987, dated 1990).
In brackets after ≈: the same amount, converted by molar mass. Where two headings read alike, the source gives them in different places.

What was measured:
M. morganii IIDKono = test: MIC by agar plate dilution method, M. morganii IIDKono; assay type: cell-based; conditions: Morganella morganii
Description: (§1) In order to investigate the in vitro activity of the under-mentioned compounds against various bacteria, the minimal inhibitory concentration (MIC) values were determined by the agar plate dilution method [see Chemotherapy, 22, 1123-1128 (1974)].
(§2) Each test inoculum was adjusted to I x 10^6 cells/ml (O.D., 600m : 0.07-0.16).

E. coli NIHJ = test: MIC by agar plate dilution method, E. coli NIHJ; assay type: cell-based; conditions: Escherichia coli, inoculum 1 x 10^6 cells/ml
Description: as §1, §2

E. coli No. 29 = test: MIC by agar plate dilution method, E. coli No. 29; assay type: cell-based; conditions: Escherichia coli, inoculum 1 x 10^6 cells/ml
Description: as §1, §2

S. aureus FDA-209-p = test: MIC by agar plate dilution method, S. aureus FDA-209-p; assay type: cell-based, Staphyloccocus aureus; conditions: Staphylococcus aureus, FDA209, inoculum 1 x 10^6 cells/ml
Description: as §1, §2

K. pneumoniae NCTC-9632 = test: MIC by agar plate dilution method, K. pneumoniae NCTC-9632; assay type: cell-based; conditions: Klebsiella pneumoniae, NCTC9632
Description: as §1, §2

S. marcescens ATCC-13880 = test: MIC by agar plate dilution method, S. marcescens ATCC-13880; assay type: cell-based; conditions: Serratia marcescens, ATCC13880, inoculum 1 x 10^6 cells/ml
Description: as §1, §2

P. mirabilis ATCC-29906 = test: MIC by agar plate dilution method, P. mirabilis ATCC-29906; assay type: cell-based; conditions: Proteus mirabilis, ATCC29906, inoculum 1 x 10^6 cells/ml
Description: as §1, §2

P. mirabilis 1287 = test: MIC by agar plate dilution method, P. mirabilis 1287; assay type: cell-based; conditions: Proteus mirabilis, inoculum 1 x 10^6 cells/ml
Description: as §1, §2

S. marcescens IFO-12648 = test: MIC by agar plate dilution method, S. marcescens IFO-12648; assay type: cell-based; conditions: Serratia marcescens, IFO12648, inoculum 1 x 10^6 cells/ml
Description: as §1, §2

M. morganii ATCC-25830 = test: MIC by agar plate dilution method, M. morganii ATCC-25830; assay type: cell-based; conditions: Morganella morganii, ATCC25830
Description: as §1, §2

P. aeruginosa NCTC-10490 = test: MIC by agar plate dilution method, P. aeruginosa NCTC-10490; assay type: cell-based; conditions: Pseudomonas aeruginosa, NCTC10490, inoculum 1 x 10^6 cells/ml
Description: as §1, §2

[1] = M. morganii IIDKono, inoculum 1 x 10^6 cells/ml, read-out: MIC
[2] = K. pneumoniae NCTC-9632, inoculum 1 x 10^6 cells/ml, read-out: MIC
[3] = M. morganii ATCC-25830, inoculum 1 x 10^6 cells/ml, read-out: MIC

SMILES	MIC (M. morganii IIDKono; [1]) [µg/mL]	MIC (E. coli NIHJ) [µg/mL]	MIC (E. coli No. 29) [µg/mL]	MIC (S. aureus FDA-209-p) [µg/mL]	MIC (K. pneumoniae NCTC-9632; [2]) [µg/mL]	MIC (S. marcescens ATCC-13880) [µg/mL]	MIC (P. mirabilis ATCC-29906) [µg/mL]	MIC (P. mirabilis 1287) [µg/mL]	MIC (S. marcescens IFO-12648) [µg/mL]	MIC (M. morganii ATCC-25830) [µg/mL]	MIC (P. aeruginosa NCTC-10490) [µg/mL]	MIC (M. morganii ATCC-25830; [3]) [µg/mL]	MIC (M. morganii IIDKono) [µg/mL]	MIC (K. pneumoniae NCTC-9632) [µg/mL]
CO/N=C(\C(=O)N[C@@H]1C(=O)N2C(C(=O)[O-])=C(C[n+]3ccc(SCC#N)cc3)OC[C@H]12)c1csc(N)n1 [No. 6, (6S,7S)-7-[2-(2-aminothiazol-4-yl}-2-methoxyiminoaoetamide]-3-[(4-cyanomethyIthio-1-pyridinio)methyl]-Δ^3-0-2-isocephem-4-carboxylate (syn isomer)]	≤ 0.025	≤ 0.025	≤ 0.025	0.78 (≈ 1.47 µM)	≤ 0.025	0.05 (≈ 0.0944 µM)	≤ 0.025	–	–	–	–	–	–	–
CO/N=C(\C(=O)N[C@@H]1C(=O)N2C(C(=O)[O-])=C(C[N+]3(C)CCc4ccccc4C3)OC[C@H]12)c1csc(N)n1 (stereo partly drawn) [No. 4, (6S,7S)-7-[2-(2-aminothiazol-4-Yl)-2-methoxyiminoacetamide]3-(2-methyl-2-1,2,3,4-tetrahydroisoquinoline-2-yl)methyl-Δ^3-0-2-isocephem-4-carboxylate (syn isomer)]	0.1 (≈ 0.19 µM)	0.1 (≈ 0.19 µM)	0.05 (≈ 0.095 µM)	0.78 (≈ 1.48 µM)	0.2 (≈ 0.38 µM)	0.2 (≈ 0.38 µM)	0.2 (≈ 0.38 µM)	–	–	–	–	–	–	–
CC(C)O/N=C(\C(=O)N[C@@H]1C(=O)N2C(C(=O)[O-])=C(C[n+]3ccc(-c4cnco4)cc3)OC[C@H]12)c1csc(N)n1 [No. 8, (6S,7S)-7-[2-(2-aminothiazol-4-yl}-2-isopropyloxyiminoacetamide]-3-[[4-(5-oxazolyl)-1-pyridinio]methyl]-Δ^3-0-2-isocephem-4-carboxylate (syn isomer)]	–	0.05 (≈ 0.0903 µM)	≤ 0.05	0.2 (≈ 0.361 µM)	≤ 0.025	–	–	0.05 (≈ 0.0903 µM)	0.2 (≈ 0.361 µM)	0.05 (≈ 0.0903 µM)	25 (≈ 45.2 µM)	–	–	–
C[N+]1(CC2=C(C(=O)[O-])N3C(=O)[C@@H](NC(=O)/C(=N\OC4CCCC4)c4csc(N)n4)[C@H]3CO2)CCCC1 [No. 11, (6S,7S)-7-[2-(2-aminothiazol-4-yl)-2-cyclopentyloxyiminoacetamide]-3-(I-methyl-1-pyrrolidinio]methyl-Δ^3-0-2-isocephem-4-carboxylate (syn isomer)]	–	0.1 (≈ 0.193 µM)	0.1 (≈ 0.193 µM)	0.2 (≈ 0.386 µM)	0.1 (≈ 0.193 µM)	–	–	0.2 (≈ 0.386 µM)	0.39 (≈ 0.752 µM)	–	12.5 (≈ 24.1 µM)	0.2 (≈ 0.386 µM)	–	–
CC(C)O/N=C(\C(=O)N[C@@H]1C(=O)N2C(C(=O)[O-])=C(C[N+]3(C)CCCC3)OC[C@H]12)c1csc(N)n1 [No. 10, (6S,7S)-7-[2-(2-aminothiazol-4-yl)-2-(3-isopropyloxyiminoacetamide]-3-(1-methyl-1pyrrolidinio)methyl-^66 ^3-0-2-isocephem-4-carboxylate (syn isomer)]	–	0.1 (≈ 0.203 µM)	0.1 (≈ 0.203 µM)	0.2 (≈ 0.406 µM)	0.05 (≈ 0.102 µM)	–	–	0.1 (≈ 0.203 µM)	0.39 (≈ 0.792 µM)	–	12.5 (≈ 25.4 µM)	0.1 (≈ 0.203 µM)	–	–
CO/N=C(\C(=O)N[C@@H]1C(=O)N2C(C(=O)O)=C(CN3CCCC3)OC[C@H]12)c1csc(N)n1 [No. 1, (6S,7S)-7-[2-(2-aminothiazol-4-yI)-2-methoxyiminoacetamide]-3-(1-pyrolidinyl)methyl-Δ^3-0-2-isocephem-4-carboxylic acid (syn isomer)]	0.2 (≈ 0.444 µM)	0.1 (≈ 0.222 µM)	0.1 (≈ 0.222 µM)	1.56 (≈ 3.46 µM)	0.2 (≈ 0.444 µM)	0.39 (≈ 0.866 µM)	0.2 (≈ 0.444 µM)	–	–	–	–	–	–	–
CO/N=C(\C(=O)N[C@@H]1C(=O)N2C(C(=O)[O-])=C(C[n+]3ccc(-c4cc[nH]n4)cc3)OC[C@H]12)c1csc(N)n1 [No. 7, (6S,7S}-7-[2-[2-aminothiazol-4-Yl}-2-methoxyiminoacetamide]-3-[[4-(3-pyrazolyl)-1-pyridinio]methyl]-Δ^3-0-2-isocephem-4-carboxylate (syn isomer)]	≤ 0.025	≤ 0.025	≤ 0.025	0.2 (≈ 0.381 µM)	≤ 0.025	0.1 (≈ 0.191 µM)	≤ 0.025	–	–	–	–	–	–	–
C=CCO/N=C(\C(=O)N[C@@H]1C(=O)N2C(C(=O)[O-])=C(C[n+]3ccc(-c4cnco4)cc3)OC[C@H]12)c1csc(N)n1 [No. 13, (6S,7S}-7-[2-(2-aminothiazol-4-Yl)-2-allyloxyiminoacetamide]-3-[[4-[5-oxazolyl)-1-pyridinio]methyl]-Δ^3-0-2-isocephem-4-carboxylate (syn isomer)]	–	0.05 (≈ 0.0907 µM)	0.05 (≈ 0.0907 µM)	0.1 (≈ 0.181 µM)	≤ 0.025	–	–	0.1 (≈ 0.181 µM)	0.2 (≈ 0.363 µM)	–	12.5 (≈ 22.7 µM)	0.2 (≈ 0.363 µM)	–	–
CO/N=C(\C(=O)N[C@@H]1C(=O)N2C(C(=O)O)=C(CN3CCc4ccccc4C3)OC[C@H]12)c1csc(N)n1 [No. 3, (6S,7S}-7-[2-(2-aminothiazol-4-yl)-2-methoxyiminoacetamide]-3-(1,2,3,4-tetrahydroisoquinolyn-2-yl}methyl-Δ^3-0-2-isocephem-4-carboxylic acid (syn isomer)]	0.2 (≈ 0.39 µM)	0.05 (≈ 0.0976 µM)	0.05 (≈ 0.0976 µM)	0.39 (≈ 0.761 µM)	0.1 (≈ 0.195 µM)	0.39 (≈ 0.761 µM)	0.1 (≈ 0.195 µM)	–	–	–	–	–	–	–
Nc1nc(/C(=N/OC2CCCC2)C(=O)N[C@@H]2C(=O)N3C(C(=O)[O-])=C(C[n+]4ccc(-c5cnco5)cc4)OC[C@H]23)cs1 [No. 9, (6S,7S}-7-[2-(2-aminothiazol-4-yl)-2-cyclopentyloxyiminoacetamide]-3-[[4-(5-oxazolyl)-1-pyridinio]methyl]-Δ^3-0-2-isocephem-4carboxylate (syn isomer)]	–	0.1 (≈ 0.173 µM)	0.05 (≈ 0.0863 µM)	0.1 (≈ 0.173 µM)	≤ 0.025	–	–	0.05 (≈ 0.0863 µM)	0.2 (≈ 0.345 µM)	–	12.5 (≈ 21.6 µM)	0.1 (≈ 0.173 µM)	–	–
CO/N=C(\C(=O)N[C@@H]1C(=O)N2C(C(=O)[O-])=C(C[n+]3ccccc3)OC[C@H]12)c1csc(N)n1 [No. 5, (6S,7S)-7-[2-(2-aminothiazol-4-yl)-2-methoxyiminoacetamide]-3-[(1-pyridinio)methyl]-Δ^3-0-2-isocephem-4-carboxylate (syn isomer)]	–	0.05 (≈ 0.109 µM)	0.05 (≈ 0.109 µM)	0.39 (≈ 0.851 µM)	–	0.1 (≈ 0.218 µM)	0.1 (≈ 0.218 µM)	–	–	–	–	–	0.05 (≈ 0.109 µM)	0.05 (≈ 0.109 µM)
CO/N=C(\C(=O)N[C@@H]1C(=O)N2C(C(=O)[O-])=C(C[N+]3(C)CCCC3)OC[C@H]12)c1csc(N)n1 [No. 2, (6S,7S)-7-[2-(2-aminothiazol-4-yl)-2-methoxyiminoacetamide]-3-(I-methyl-1-pyrrolidinio)methyl-Δ^3-0-2-isocephem-4-carboxylate (syn isomer)]	0.1 (≈ 0.215 µM)	0.05 (≈ 0.108 µM)	0.05 (≈ 0.108 µM)	0.39 (≈ 0.84 µM)	–	0.1 (≈ 0.215 µM)	0.1 (≈ 0.215 µM)	–	–	–	–	–	–	0.05 (≈ 0.108 µM)
CC(C)O/N=C(\C(=O)N[C@@H]1C(=O)N2C(C(=O)[O-])=C(C[n+]3cccc4c3CCC4)OC[C@H]12)c1csc(N)n1 [No. 12, (6S,7S}-7-[2-(2-amino&hiazol-4-Yl}-2-isopropyloxyiminoacetamide]-3-[(6,7-dihydro-5H-1-pyridinio)]methyl]-Δ^3-0-2-isocephem-4-carboxylate (syn isomer)]	–	0.05 (≈ 0.095 µM)	≤ 0.05	0.1 (≈ 0.19 µM)	≤ 0.025	–	–	0.05 (≈ 0.095 µM)	0.39 (≈ 0.741 µM)	–	25 (≈ 47.5 µM)	0.2 (≈ 0.38 µM)	–	–
